Assay results reported in patent US9006191B2, “Silencing of polo-like kinase expression using interfering RNA” (Protiva Biotherapeutics, Inc., priority 2007, dated 2015).

Each substance was assayed on HT29 cells (assay: HT29 cell viability assay (CellTiter-Blue)). Conditions: HT29 cells, SNALP-formulated siRNA at a range of siRNA concentrations, viability at 72 h relative to PBS.
Type: cell-based, human
Protocol: (§1) Various PLK-1 siRNAs were formulated as SNALP (“2:40” SNALP formulation: 2% PEG-cDMA; 40% DLinDMA; 10% DSPC; and 48% cholesterol) and evaluated for their inhibitory effects on cell growth in vitro. HT29 (human colon adenocarcinoma) or Neuro2A (mouse neuroblastoma) cells were treated with various PLK-1 SNALP at a range of siRNA concentrations and their effect on cell viability was evaluated. Viability of cell cultures is expressed as % viability relative to PBS treated controls.
Additional PLK-1 siRNA molecules were formulated as SNALP (“2:40” SNALP formulation: 2% PEG-cDMA; 40% DLinDMA; 10% DSPC; and 48% cholesterol) and evaluated for their inhibitory effects on cell growth in vitro. HT29 or Neuro2A cells were plated in triplicate at 5000 cells/well and 2500 cells/well, respectively. PLK-1 SNALP dosages were as follows: 25 nM; 5 nM; and 1 nM. Cell viability analysis was performed at 72 hours following transfection. SNALP containing a non-targeting (GFP) siRNA were used as a negative control. […]
PLK-1 siRNA molecules containing 2′-O-methyl (2′OMe) nucleotides at selective positions within the double-stranded region of the siRNA duplex were formulated as SNALP (“2:40” SNALP formulation: 2% PEG-cDMA; 40% DLinDMA; 10% DSPC; and 48% cholesterol) and evaluated for their inhibitory effects on cell growth in vitro. HT29 cells were plated in triplicate at 5000 cells/well. Cell viability analysis was performed at 72 hours following transfection with a range of PLK-1 SNALP dosages. SNALP containing a non-targeting (GFP) siRNA were used as a negative control.
Cell viability assays. […] Cell viability analysis was performed at 72 hours following transfection with a range of PLK-1 SNALP dosages.

| Substance | cell viability / killing of human tumor cells |
| --- | --- |
| PLK1232: siRNA to human PLK-1, SEQ ID NO:23/24 (chain 1 UCAGCAAGUGGGUGGACUA; chain 2 UAGUCCACCCACUUGCUGA; listed as RNA, chemistry not given here) | effective at killing human tumor cells |
| PLK1081: siRNA to human PLK-1, SEQ ID NO:17/18 (chain 1 CCAGUGGUUCGAGAGACAG; chain 2 CUGUCUCUCGAACCACUGG; listed as RNA, chemistry not given here) | inhibited the growth of human tumor cells, but at higher siRNA concentrations |
| PLK1424 U3/GU: 2′OMe-modified PLK1424 siRNA, SEQ ID NO:53/54 (chain 1 AGANCACCCNCCUNAAAUANN; chain 2 UAUUUAANGAGGGUGANCUNN; 2'-OMe modifications, further chemistry not given here) | as potent as the unmodified PLK1424 sequence |
| PLK1242: siRNA to human PLK-1, SEQ ID NO:27/28 (chain 1 GGUGGACUAUUCGGACAAG; chain 2 CUUGUCCGAAUAGUCCACC; listed as RNA, chemistry not given here) | effective at killing human tumor cells |
| PLK1425 3/5: 2′OMe-modified PLK1425 siRNA, SEQ ID NO:67/68 (chain 1 GANCACCCUCCUNAAANAUNN; chain 2 AUAUUUAANGAGGGUGANCNN; 2'-OMe modifications, chemistry not fully specified) | more potent than the unmodified PLK1425 sequence |
| PLK832: siRNA to human PLK-1, SEQ ID NO:13/14 (chain 1 GCCGCCUCCCUCAUCCAGA; chain 2 UCUGGAUGAGGGAGGCGGC; listed as RNA, chemistry not given here) | effective at killing human tumor cells |
| PLK694: siRNA to human PLK-1, SEQ ID NO:9/10 (chain 1 GUGGAUGUGUGGUCCAUUG; chain 2 CAAUGGACCACACAUCCAC; listed as RNA, chemistry not given here) | effective at killing human tumor cells |
| PLK1233: siRNA to human PLK-1, SEQ ID NO:25/26 (chain 1 CAGCAAGUGGGUGGACUAU; chain 2 AUAGUCCACCCACUUGCUG; listed as RNA, chemistry not given here) | effective at killing human tumor cells |
| PLK1345: siRNA to human PLK-1, SEQ ID NO:29/30 (chain 1 GACAGCCUGCAGUACAUAG; chain 2 CUAUGUACUGCAGGCUGUC; listed as RNA, chemistry not given here) | inhibited the growth of human tumor cells, but at higher siRNA concentrations |
| PLK1195: siRNA to human PLK-1, SEQ ID NO:19/20 (chain 1 GAGGCUGAGGAUCCUGCCU; chain 2 AGGCAGGAUCCUCAGCCUC; listed as RNA, chemistry not given here) | effective at killing human tumor cells |
| PLK772: siRNA to human PLK-1, SEQ ID NO:11/12 (chain 1 GAGACCUACCUCCGGAUCA; chain 2 UGAUCCGGAGGUAGGUCUC; listed as RNA, chemistry not given here) | effective at killing human tumor cells |
| PLK1556: siRNA to human PLK-1, SEQ ID NO:31/32 (chain 1 GCGCCAUCAUCCUGCACCU; chain 2 AGGUGCAGGAUGAUGGCGC; listed as RNA, chemistry not given here) | effective at killing human tumor cells |
| PLK1229: siRNA to human PLK-1, SEQ ID NO:21/22 (chain 1 GGGUCAGCAAGUGGGUGGA; chain 2 UCCACCCACUUGCUGACCC; listed as RNA, chemistry not given here) | effective at killing human tumor cells |
| PLK773 G/GU: 2′OMe-modified PLK773 siRNA, SEQ ID NO:64/63 (chain 1 AGACCUACCUCCGGAUCAANN; chain 2 UUGAUCCGGAGGUAGGUCUNN; chain 1: 2'-O-methyl at 2, 13, other sugars, backbone and the base at N not given here; chain 2: 2'-O-methyl at 9, 12, 17, other sugars, backbone and the base at N not given here; 3' NN overhangs: dT or U ribonucleotide) | more potent than the unmodified PLK1424 sequence |
| PLK1424 U4/GU: 2′OMe-modified PLK1424 siRNA, SEQ ID NO:57/54 (chain 1 AGANCACCCNCCUNAAANANN; chain 2 UAUUUAANGAGGGUGANCUNN; 2'-OMe modifications, further chemistry not given here) | as potent as the unmodified PLK1424 sequence |

The substances below were run on IFIT1 mRNA, serum IFNα (assay: In vivo immune stimulation assay in Balb/c mice (IFIT1 mRNA, serum IFNα)). Conditions: SNALP-formulated siRNA IV, 4-6 h.
Protocol: Balb/c mice (n=4 per group) were administered 2.5 mg/kg siRNA or lipid vehicle; serum IFNα (pg/mL) and IFIT1 mRNA (relative to GAPDH) from whole liver lysates were assessed after 4, 8, and 16 h by ELISA and bDNA assay, respectively. […] (b) Serum IFNα and (c) liver IFIT1 mRNA were assessed 4 h after administration (mean+SD, n=4).
SNALP-formulated Luc (unmodified) and the 2′OMe-modified Luc-U/U, PLK1424-2/A, PLK773-1/B, or KSP2263-U/U siRNA were administered at 2 mg/kg i.v. to Balb/C mice. (A) IFIT1 relative to GAPDH mRNA in liver and spleen was assessed at 4 h by bDNA analysis. […] Serum IFNα was assessed at 6 h by ELISA. […] Values represent mean+SD (n=4).
IFIT1 mRNA and serum cytokines were assessed 4-6 h after SNALP administration based on the approximate time of peak response for these markers. In these studies, SNALP-formulated native Luc siRNA (Table 6) was used as a positive control for immune stimulation.
In vivo immune stimulation assays. […] 6-8 week old Balb/C mice were obtained from Harlan and subject to a two week acclimation period prior to use. Mice were administered SNALP formulated siRNA (2 mg/kg) in PBS via standard intravenous injection in the lateral tail vein. Blood was collected by cardiac puncture and processed as plasma for cytokine analysis. Liver and spleen were collected into RNALater (Sigma Co.) for IFIT1 mRNA analysis.
Measurement of IFIT1 mRNA in mouse tissues. Murine liver and spleen were processed for bDNA assay to quantitate IFIT1 mRNA as described above. The IFIT1 probe set was specific to mouse IFIT1 mRNA (positions 4-499 of NM—008331) and the GAPDH probe set was specific to mouse GAPDH mRNA (positions 9-319 of NM—008084). Data is shown as the ratio of IFIT1 relative light units (RLU) to GAPDH RLU.
Cytokine ELISA. All cytokines were quantified using sandwich ELISA kits. These were mouse interferon-α (PBL Biomedical; Piscataway, N.J.) and human and mouse IL-6 (BD Biosciences; San Diego, Calif.).

| Substance | serum IFNα / serum cytokine response |
| --- | --- |
| U(S)-ApoB1: ApoB-1 siRNA with 2′OMe-modified sense strand, SEQ ID NO:284/285 (sense GNCANCACACNGAANACCAAN; antisense AUUGGUAUUCAGUGUGAUGACAC; 2'-OMe on sense strand, chemistry not fully specified) | no measurable serum cytokine response |

Same assay, conditions: SNALP-formulated siRNA IV, 4 h

| Substance | IFIT1 mRNA induction in liver and spleen |
| --- | --- |
| U(S)-ApoB1: ApoB-1 siRNA with 2′OMe-modified sense strand, SEQ ID NO:284/285 (sense GNCANCACACNGAANACCAAN; antisense AUUGGUAUUCAGUGUGAUGACAC; 2'-OMe on sense strand, chemistry not fully specified) | induction of IFN-inducible p56 IFIT1 mRNA in the liver and spleen |

The substances below were run on Neuro2A cells (assay: Neuro2A cell viability assay (CellTiter-Blue)). Conditions: mouse Neuro2A cells, SNALP-formulated siRNA, viability at 72 h relative to PBS.
Type: cell-based
Protocol: as §1
Additional PLK-1 siRNA molecules were formulated as SNALP (“2:40” SNALP formulation: 2% PEG-cDMA; 40% DLinDMA; 10% DSPC; and 48% cholesterol) and evaluated for their inhibitory effects on cell growth in vitro. HT29 or Neuro2A cells were plated in triplicate at 5000 cells/well and 2500 cells/well, respectively. PLK-1 SNALP dosages were as follows: 25 nM; 5 nM; and 1 nM. Cell viability analysis was performed at 72 hours following transfection. SNALP containing a non-targeting (GFP) siRNA were used as a negative control.
Additional PLK-1 siRNA molecules were formulated as SNALP (“2:40” SNALP formulation: 2% PEG-cDMA; 40% DLinDMA; 10% DSPC; and 48% cholesterol) and evaluated for their inhibitory effects on cell growth in vitro. HT29 or Neuro2A cells were plated in triplicate at 5000 cells/well and 2500 cells/well, respectively. PLK-1 SNALP dosages were as follows: 30 nM; 10 nM; and 3.3 nM. Cell viability analysis was performed at 72 hours following transfection. SNALP containing a non-targeting (GFP) siRNA were used as a negative control.

| Substance | cell viability / inhibition of cell growth |
| --- | --- |
| PLK1232: siRNA to human PLK-1, SEQ ID NO:23/24 (chain 1 UCAGCAAGUGGGUGGACUA; chain 2 UAGUCCACCCACUUGCUGA; listed as RNA, chemistry not given here) | most potent human/mouse cross-reactive siRNA molecule |
| mPLK1607: siRNA to mouse PLK-1, SEQ ID NO:43/44 (chain 1 AGGACCACACCAAACUUAU; chain 2 AUAAGUUUGGUGUGGUCCU; listed as RNA, chemistry not given here) | most active mouse-specific PLK-1 siRNA sequences |
| mPLK1668: siRNA to mouse PLK-1, SEQ ID NO:49/50 (chain 1 GAGGGACUUCCAAACGUAC; chain 2 GUACGUUUGGAAGUCCCUC; listed as RNA, chemistry not given here) | most active mouse-specific PLK-1 siRNA sequences |
| mPLK1424: siRNA to mouse PLK-1, SEQ ID NO:35/36 (chain 1 AGAUCACUCUCCUCAACUA; chain 2 UAGUUGAGGAGAGUGAUCU; listed as RNA, chemistry not given here) | most active mouse-specific siRNA sequences |
| PLK1345: siRNA to human PLK-1, SEQ ID NO:29/30 (chain 1 GACAGCCUGCAGUACAUAG; chain 2 CUAUGUACUGCAGGCUGUC; listed as RNA, chemistry not given here) | effective at inhibiting the growth of mouse Neuro2A cells at higher siRNA concentrations |
| mPLK1608: siRNA to mouse PLK-1, SEQ ID NO:45/46 (chain 1 GGACCACACCAAACUUAUC; chain 2 GAUAAGUUUGGUGUGGUCC; listed as RNA, chemistry not given here) | most active mouse-specific PLK-1 siRNA sequences |
| PLK1229: siRNA to human PLK-1, SEQ ID NO:21/22 (chain 1 GGGUCAGCAAGUGGGUGGA; chain 2 UCCACCCACUUGCUGACCC; listed as RNA, chemistry not given here) | most potent human/mouse cross-reactive siRNA molecules |
| mPLK1425: siRNA to mouse PLK-1, SEQ ID NO:37/38 (chain 1 GAUCACUCUCCUCAACUAU; chain 2 AUAGUUGAGGAGAGUGAUC; listed as RNA, chemistry not given here) | most active mouse-specific siRNA sequences |
